According to US20250114338A1, “TETRAHYDRO-PYRIDO[3,4-b]INDOLE ESTROGEN RECEPTOR MODULATORS AND USES THEREOF” (Genentech, Inc., priority 2014, published 2025):

Tested on: ER-alpha MCF7
Assay: ER-alpha MCF7 HCS EC50; stated as measured by in vitro cell proliferation assays of Examples 902 and 903
Type: cell-based
Conditions: Homo sapiens, MCF7, MCF7 cells; Table 2
In short: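 MCF7 cells seeded 1000-2000 cells/well for 16 h, then treated with nine-point 1:2 DMSO dilution series in quadruplicate at 37 °C, 5% CO2 for 4 days. Viable cells quantified by CellTiter-Glo ATP luminescence; EC50 calculated. Controls: fulvestrant at final 100 nM, DMSO 0.2% v/v.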

C[C@@H]1Cc2c([nH]c3ccccc23)[C@@H](c2c(F)cc(OC3CN(C[C@@H]4C[C@@H]4F)C3)cc2F)N1CC(C)(C)F [Example 282, (1R,3R)-1-(2,6-difluoro-4-((1-(((1S,2S)-2-fluorocyclopropyl)methyl)azetidin-3-yl)oxy)phenyl)-2-(2-fluoro-2-methylpropyl)-3-methyl-2,3,4,9-tetrahydro-1H-pyrido[3,4-b]indole]
EC50: 1 nM

CC(=O)CN1[C@H](c2c(F)cc(OC3CN(CCCF)C3)cc2F)c2[nH]c3ccccc3c2C[C@H]1C [Example 283, 1-[(1R,3R)-1-[2,6-difluoro-4-[1-(3-fluoropropyl)azetidin-3-yl]oxy-phenyl]-3-methyl-1,3,4,9-tetrahydropyrido[3,4-b]indol-2-yl]propan-2-one]
EC50: 1 nM

C[C@@H]1Cc2c([nH]c3ccccc23)[C@@H](c2c(F)cc(OC3CN(CCCF)C3)cc2F)N1CC(C)(C)CO [Example 284, 3-[(1R,3R)-1-[2,6-difluoro-4-[1-(3-fluoropropyl)azetidin-3-yl]oxy-phenyl]-3-methyl-1,3,4,9-tetrahydropyrido[3,4-b]indol-2-yl]-2,2-dimethyl-propan-1-ol]
EC50: 0.382 nM

CCS(=O)(=O)N1[C@H](c2c(F)cc(OC3CN(CCCF)C3)cc2F)c2[nH]c3ccccc3c2C[C@H]1C [Example 285, (1R,3R)-1-[2,6-difluoro-4-[1-(3-fluoropropyl)azetidin-3-yl]oxy-phenyl]-2-ethylsulfonyl-3-methyl-1,3,4,9-tetrahydropyrido[3,4-b]indole]
EC50: 2 nM

C[C@@H]1Cc2c([nH]c3ccccc23)[C@@H](c2c(F)cc(OCCN3CC(CF)C3)cc2F)N1CC(F)(F)CO [Example 286, 3-[(1R,3R)-1-[2,6-difluoro-4-[2-[3-(fluoromethyl)azetidin-1-yl]ethoxy]phenyl]-3-methyl-1,3,4,9-tetrahydropyrido[3,4-b]indol-2-yl]-2,2-difluoro-propan-1-ol]
EC50: 0.0978 nM

C[C@@H]1Cc2c([nH]c3ccccc23)[C@@H](c2c(F)cc(OCCN3CC(CF)C3)cc2F)N1CC(C)(C)CO [Example 287, 3-[(1R,3R)-1-[2,6-difluoro-4-[2-[3-(fluoromethyl)azetidin-1-yl]ethoxy]phenyl]-3-methyl-1,3,4,9-tetrahydropyrido[3,4-b]indol-2-yl]-2,2-dimethyl-propan-1-ol]
EC50: 1 nM

C[C@@H]1Cc2c([nH]c3ccccc23)[C@@H](c2c(F)cc(NC3CN(CCCF)C3)cc2F)N1C[C@@](C)(F)CO [Example 288, (R)-3-((1R,3R)-1-(2,6-difluoro-4-((1-(3-fluoropropyl)azetidin-3-yl)amino)phenyl)-3-methyl-1,3,4,9-tetrahydro-2H-pyrido[3,4-b]indol-2-yl)-2-fluoro-2-methylpropan-1-ol]
EC50: 0.0528 nM

C[C@@H]1Cc2c([nH]c3ccccc23)[C@@H](c2c(F)cc(NC3CN(CCCF)C3)cc2F)N1C[C@](C)(F)CO [Example 289, (S)-3-((1R,3R)-1-(2,6-difluoro-4-((1-(3-fluoropropyl)azetidin-3-yl)amino)phenyl)-3-methyl-1,3,4,9-tetrahydro-2H-pyrido[3,4-b]indol-2-yl)-2-fluoro-2-methylpropan-1-ol]
EC50: 0.199 nM

C[C@@H]1Cc2c([nH]c3ccccc23)[C@@H](c2ccc(NC3CN(CCCF)C3)cc2F)N1C[C@@](C)(F)CO [Example 290, (R)-2-fluoro-3-((1R,3R)-1-(2-fluoro-4-((1-(3-fluoropropyl)azetidin-3-yl)amino)phenyl)-3-methyl-1,3,4,9-tetrahydro-2H-pyrido[3,4-b]indol-2-yl)-2-methylpropan-1-ol]
EC50: 0.497 nM

C[C@@H]1Cc2c([nH]c3ccccc23)[C@@H](c2ccc(NC3CN(CCCF)C3)cc2F)N1C[C@](C)(F)CO [Example 291, (S)-2-fluoro-3-((1R,3R)-1-(2-fluoro-4-((1-(3-fluoropropyl)azetidin-3-yl)amino)phenyl)-3-methyl-1,3,4,9-tetrahydro-2H-pyrido[3,4-b]indol-2-yl)-2-methylpropan-1-ol]
EC50: 0.13 nM

C[C@@H]1Cc2c([nH]c3ccccc23)[C@@H](c2ccc(NC3CN(CCCF)C3)cc2)N1C[C@@](C)(F)CO [Example 292, (R)-2-fluoro-3-((1R,3R)-1-(4-((1-(3-fluoropropyl)azetidin-3-yl)amino)phenyl)-3-methyl-1,3,4,9-tetrahydro-2H-pyrido[3,4-b]indol-2-yl)-2-methylpropan-1-ol]
EC50: 2 nM

C[C@@H]1Cc2c([nH]c3ccccc23)[C@@H](c2ccc(NC3CN(CCCF)C3)cc2)N1C[C@](C)(F)CO [Example 293, (S)-2-fluoro-3-((1R,3R)-1-(4-((1-(3-fluoropropyl)azetidin-3-yl)amino)phenyl)-3-methyl-1,3,4,9-tetrahydro-2H-pyrido[3,4-b]indol-2-yl)-2-methylpropan-1-ol]
EC50: 0.15 nM

CC(=O)CN1[C@@H](c2c(F)cc(OC3CN(CCCF)C3)cc2F)c2[nH]c3ccccc3c2C[C@H]1C [Example 295, 1-((1S,3R)-1-(2,6-difluoro-4-((1-(3-fluoropropyl)azetidin-3-yl)oxy)phenyl)-3-methyl-1,3,4,9-tetrahydro-2H-pyrido[3,4-b]indol-2-yl)propan-2-one]
EC50: 21 nM

C[C@@H]1Cc2c([nH]c3ccccc23)[C@@H](c2c(F)cc(NCCN3CC(CF)C3)cc2F)N1CC(F)(F)F [Example 296, 3,5-difluoro-N-(2-(3-(fluoromethyl)azetidin-1-yl)ethyl)-4-((1R,3R)-3-methyl-2-(2,2,2-trifluoroethyl)-2,3,4,9-tetrahydro-1H-pyrido[3,4-b]indol-1-yl)aniline]
EC50: 0.2 nM

C[C@@H]1Cc2c([nH]c3ccccc23)[C@@H](c2c(F)cc(OCCN3CC(CF)C3)cc2F)N1C[C@H](C)C(=O)N(C)C [Example 297, (S)-3-((1R,3R)-1-(2,6-difluoro-4-(2-(3-(fluoromethyl)azetidin-1-yl)ethoxy)phenyl)-3-methyl-1,3,4,9-tetrahydro-2H-pyrido[3,4-b]indol-2-yl)-N,N,2-trimethylpropanamide]
EC50: 18 nM

C[C@H](CN1[C@H](c2c(F)cc(OCCN3CC(CF)C3)cc2F)c2[nH]c3ccccc3c2C[C@H]1C)C(=O)N(C)C [Example 298, (R)-3-((1R,3R)-1-(2,6-difluoro-4-(2-(3-(fluoromethyl)azetidin-1-yl)ethoxy)phenyl)-3-methyl-1,3,4,9-tetrahydro-2H-pyrido[3,4-b]indol-2-yl)-N,N,2-trimethylpropanamide]
EC50: 5 nM

C[C@@H]1Cc2c([nH]c3ccccc23)[C@@H](c2c(F)cc(OCCN3CC(CF)C3)cc2F)N1C[C@H](C)C(=O)O [Example 299, (S)-3-((1R,3R)-1-(2,6-difluoro-4-(2-(3-(fluoromethyl)azetidin-1-yl)ethoxy)phenyl)-3-methyl-1,3,4,9-tetrahydro-2H-pyrido[3,4-b]indol-2-yl)-2-methylpropanoic acid]
EC50: 3 nM

C[C@H](CN1[C@H](c2c(F)cc(OCCN3CC(CF)C3)cc2F)c2[nH]c3ccccc3c2C[C@H]1C)C(=O)O [Example 300, (R)-3-((1R,3R)-1-(2,6-difluoro-4-(2-(3-(fluoromethyl)azetidin-1-yl)ethoxy)phenyl)-3-methyl-1,3,4,9-tetrahydro-2H-pyrido[3,4-b]indol-2-yl)-2-methylpropanoic acid]
EC50: 1 nM
